In patent US8710045B2, “Agents for preventing and treating disorders involving modulation of the ryanodine receptors” (The Trustees of Columbia University in the City of New York, priority 2004, dated 2014):
“And” between values parts separate entries of the source, which are not always exact repeats. Identical values can stand only once.

Key:
[1] = test system: FKBP12.6+/− mice
[2] = test system: skeletal muscle; conditions: five weeks after left coronary artery ligation; cited from earlier work
[3] = test system: RyR2; conditions: wildtype mice, 0.5 mg/kg/h for 28 days post-myocardial infarction
Description: Equivalent amounts of RyR2 are immunoprecipitated with an antibody against RyR2 (top blot).

[4] = molecular target: T1, PKA-phosphorylated RyR2 (Homo sapiens, UniProt Q92736); assay: FKBP12.6 rebinding assay: FKBP12.6 binding to PKA-phosphorylated RyR2 in cardiac SR; conditions: compound 0.5-1000 nM; Michaelis-Menten curve fitting
T1 construct: from tissue
Method: Samples are centrifuged at 95,000 g for 10 min and the pellets are washed three times in 0.2 ml imidazole buffer. The final pellets are pooled and resuspended in imidazole buffer (final concentration≈10 μg/μl). […] Samples then are centrifuged at 100,000 g for 10 minutes and pellets washed 3 times with imidizol buffer. […] Immunoblots are developed using an anti-FKBP antibody (1:3,000 dilution). […] The intracellular solution contains (in mM): CsCl, 60; CaCl2, 1; EGTA, 11; MgCl2, 1; K2ATP, 5; HEPES, 10; aspartic acid, 50; pH 7.4 (CsOH). Under these conditions, it is expected that the measured current was carried by Ba^2+ primarily through L-type calcium channels which is referred to as ICa,L. Drugs are applied by a local solution changer and reach the cell membrane within 1 s.
The FKBP12.6 rebinding assay described above is used to determine the amount of FKBP12.6 binding to PKA-phosphorylated RyR2 at various concentrations (0.5-1000 nM) of the compounds shown. EC50 values are calculated using Michaelis-Menten curve fitting.
The EC50 values are calculated using Michaelis-Menten curve fitting.

[5] = molecular target: hERG (Homo sapiens, UniProt Q12809); assay: hERG current, PatchXpress 7000A automatic parallel patch clamp in hERG-transfected HEK 293 cells (Example 6); conditions: human, HEK 293 cells stably transfected with hERG cDNA
Method: (§1) HEK293 cells were transfected with a plasmid containing the hERG cDNA and a neomycin resistance gene. Stable transfectants were selected by culturing the cells in the presence of G418. The selection pressure was maintained by continued culture in the presence of G418. […] Cells for use in electrophysiology were cultured in 35 mm dishes.
(§2) Onset and steady state block of hERG current was measured using a pulse pattern with fixed amplitudes (conditioning prepulse: +20 mV for 2 seconds; test pulse: −50 mV for 2 seconds) repeated at 10 second intervals, from a holding potential of −80 mV. Peak tail current was measured during the 2 second step to −50 mV. A steady state was maintained for at least 30 seconds before applying the test compound or the positive control. Peak tail current was monitored until a new steady state was achieved. Test compound concentrations were applied cumulatively in ascending order without washout between applications.
(§3) Data acquisition and analysis was performed using the suite of pCLAMP (Vre. 8.2) programs (Axon Instruments, Union City, Calif.). Steady state was defined by the limiting constant rate of change with time (linear time dependence). The steady state before and after application of the test or control compounds was used to calculate the percentage of current inhibited at each concentration. […] Nonlinear squares fits were solved with the Solver add-in for Excel 2000 (Microsoft, Redmond, Wash.).
(§4) Multiple compounds of the invention were tested for their effects on hERG currents. The compounds tested were: ARM036-Na, ARM047, ARM048, ARM050, ARM057, ARM064, ARM074, ARM075, ARM076, ARM077, ARM101, ARM102, ARM103, ARM104, ARM106, ARM107 and ARM26. […] Electrophysiological recordings were made using the PatchXpress 7000 A (Molecular Devices) automatic parallel patch clamp system. […] The duration of exposure to each test concentration was 5 minutes.

[6] = molecular target: hERG current (Homo sapiens, UniProt Q12809); assay: as above; conditions: for Individual Data (% Inhibition): single cell; for hERG current inhibition at the highest concentration tested: highest concentration tested (10 μM)
Method: as §1, §2, §3, §4

[7] = Individual Data (% Inhibition), single cell
[8] = Individual Data (% Inhibition), 10 μM, single cell
[9] = hERG current inhibition at the highest concentration tested, highest concentration tested (10 μM)

T1 sequence (Q92736 whole entry): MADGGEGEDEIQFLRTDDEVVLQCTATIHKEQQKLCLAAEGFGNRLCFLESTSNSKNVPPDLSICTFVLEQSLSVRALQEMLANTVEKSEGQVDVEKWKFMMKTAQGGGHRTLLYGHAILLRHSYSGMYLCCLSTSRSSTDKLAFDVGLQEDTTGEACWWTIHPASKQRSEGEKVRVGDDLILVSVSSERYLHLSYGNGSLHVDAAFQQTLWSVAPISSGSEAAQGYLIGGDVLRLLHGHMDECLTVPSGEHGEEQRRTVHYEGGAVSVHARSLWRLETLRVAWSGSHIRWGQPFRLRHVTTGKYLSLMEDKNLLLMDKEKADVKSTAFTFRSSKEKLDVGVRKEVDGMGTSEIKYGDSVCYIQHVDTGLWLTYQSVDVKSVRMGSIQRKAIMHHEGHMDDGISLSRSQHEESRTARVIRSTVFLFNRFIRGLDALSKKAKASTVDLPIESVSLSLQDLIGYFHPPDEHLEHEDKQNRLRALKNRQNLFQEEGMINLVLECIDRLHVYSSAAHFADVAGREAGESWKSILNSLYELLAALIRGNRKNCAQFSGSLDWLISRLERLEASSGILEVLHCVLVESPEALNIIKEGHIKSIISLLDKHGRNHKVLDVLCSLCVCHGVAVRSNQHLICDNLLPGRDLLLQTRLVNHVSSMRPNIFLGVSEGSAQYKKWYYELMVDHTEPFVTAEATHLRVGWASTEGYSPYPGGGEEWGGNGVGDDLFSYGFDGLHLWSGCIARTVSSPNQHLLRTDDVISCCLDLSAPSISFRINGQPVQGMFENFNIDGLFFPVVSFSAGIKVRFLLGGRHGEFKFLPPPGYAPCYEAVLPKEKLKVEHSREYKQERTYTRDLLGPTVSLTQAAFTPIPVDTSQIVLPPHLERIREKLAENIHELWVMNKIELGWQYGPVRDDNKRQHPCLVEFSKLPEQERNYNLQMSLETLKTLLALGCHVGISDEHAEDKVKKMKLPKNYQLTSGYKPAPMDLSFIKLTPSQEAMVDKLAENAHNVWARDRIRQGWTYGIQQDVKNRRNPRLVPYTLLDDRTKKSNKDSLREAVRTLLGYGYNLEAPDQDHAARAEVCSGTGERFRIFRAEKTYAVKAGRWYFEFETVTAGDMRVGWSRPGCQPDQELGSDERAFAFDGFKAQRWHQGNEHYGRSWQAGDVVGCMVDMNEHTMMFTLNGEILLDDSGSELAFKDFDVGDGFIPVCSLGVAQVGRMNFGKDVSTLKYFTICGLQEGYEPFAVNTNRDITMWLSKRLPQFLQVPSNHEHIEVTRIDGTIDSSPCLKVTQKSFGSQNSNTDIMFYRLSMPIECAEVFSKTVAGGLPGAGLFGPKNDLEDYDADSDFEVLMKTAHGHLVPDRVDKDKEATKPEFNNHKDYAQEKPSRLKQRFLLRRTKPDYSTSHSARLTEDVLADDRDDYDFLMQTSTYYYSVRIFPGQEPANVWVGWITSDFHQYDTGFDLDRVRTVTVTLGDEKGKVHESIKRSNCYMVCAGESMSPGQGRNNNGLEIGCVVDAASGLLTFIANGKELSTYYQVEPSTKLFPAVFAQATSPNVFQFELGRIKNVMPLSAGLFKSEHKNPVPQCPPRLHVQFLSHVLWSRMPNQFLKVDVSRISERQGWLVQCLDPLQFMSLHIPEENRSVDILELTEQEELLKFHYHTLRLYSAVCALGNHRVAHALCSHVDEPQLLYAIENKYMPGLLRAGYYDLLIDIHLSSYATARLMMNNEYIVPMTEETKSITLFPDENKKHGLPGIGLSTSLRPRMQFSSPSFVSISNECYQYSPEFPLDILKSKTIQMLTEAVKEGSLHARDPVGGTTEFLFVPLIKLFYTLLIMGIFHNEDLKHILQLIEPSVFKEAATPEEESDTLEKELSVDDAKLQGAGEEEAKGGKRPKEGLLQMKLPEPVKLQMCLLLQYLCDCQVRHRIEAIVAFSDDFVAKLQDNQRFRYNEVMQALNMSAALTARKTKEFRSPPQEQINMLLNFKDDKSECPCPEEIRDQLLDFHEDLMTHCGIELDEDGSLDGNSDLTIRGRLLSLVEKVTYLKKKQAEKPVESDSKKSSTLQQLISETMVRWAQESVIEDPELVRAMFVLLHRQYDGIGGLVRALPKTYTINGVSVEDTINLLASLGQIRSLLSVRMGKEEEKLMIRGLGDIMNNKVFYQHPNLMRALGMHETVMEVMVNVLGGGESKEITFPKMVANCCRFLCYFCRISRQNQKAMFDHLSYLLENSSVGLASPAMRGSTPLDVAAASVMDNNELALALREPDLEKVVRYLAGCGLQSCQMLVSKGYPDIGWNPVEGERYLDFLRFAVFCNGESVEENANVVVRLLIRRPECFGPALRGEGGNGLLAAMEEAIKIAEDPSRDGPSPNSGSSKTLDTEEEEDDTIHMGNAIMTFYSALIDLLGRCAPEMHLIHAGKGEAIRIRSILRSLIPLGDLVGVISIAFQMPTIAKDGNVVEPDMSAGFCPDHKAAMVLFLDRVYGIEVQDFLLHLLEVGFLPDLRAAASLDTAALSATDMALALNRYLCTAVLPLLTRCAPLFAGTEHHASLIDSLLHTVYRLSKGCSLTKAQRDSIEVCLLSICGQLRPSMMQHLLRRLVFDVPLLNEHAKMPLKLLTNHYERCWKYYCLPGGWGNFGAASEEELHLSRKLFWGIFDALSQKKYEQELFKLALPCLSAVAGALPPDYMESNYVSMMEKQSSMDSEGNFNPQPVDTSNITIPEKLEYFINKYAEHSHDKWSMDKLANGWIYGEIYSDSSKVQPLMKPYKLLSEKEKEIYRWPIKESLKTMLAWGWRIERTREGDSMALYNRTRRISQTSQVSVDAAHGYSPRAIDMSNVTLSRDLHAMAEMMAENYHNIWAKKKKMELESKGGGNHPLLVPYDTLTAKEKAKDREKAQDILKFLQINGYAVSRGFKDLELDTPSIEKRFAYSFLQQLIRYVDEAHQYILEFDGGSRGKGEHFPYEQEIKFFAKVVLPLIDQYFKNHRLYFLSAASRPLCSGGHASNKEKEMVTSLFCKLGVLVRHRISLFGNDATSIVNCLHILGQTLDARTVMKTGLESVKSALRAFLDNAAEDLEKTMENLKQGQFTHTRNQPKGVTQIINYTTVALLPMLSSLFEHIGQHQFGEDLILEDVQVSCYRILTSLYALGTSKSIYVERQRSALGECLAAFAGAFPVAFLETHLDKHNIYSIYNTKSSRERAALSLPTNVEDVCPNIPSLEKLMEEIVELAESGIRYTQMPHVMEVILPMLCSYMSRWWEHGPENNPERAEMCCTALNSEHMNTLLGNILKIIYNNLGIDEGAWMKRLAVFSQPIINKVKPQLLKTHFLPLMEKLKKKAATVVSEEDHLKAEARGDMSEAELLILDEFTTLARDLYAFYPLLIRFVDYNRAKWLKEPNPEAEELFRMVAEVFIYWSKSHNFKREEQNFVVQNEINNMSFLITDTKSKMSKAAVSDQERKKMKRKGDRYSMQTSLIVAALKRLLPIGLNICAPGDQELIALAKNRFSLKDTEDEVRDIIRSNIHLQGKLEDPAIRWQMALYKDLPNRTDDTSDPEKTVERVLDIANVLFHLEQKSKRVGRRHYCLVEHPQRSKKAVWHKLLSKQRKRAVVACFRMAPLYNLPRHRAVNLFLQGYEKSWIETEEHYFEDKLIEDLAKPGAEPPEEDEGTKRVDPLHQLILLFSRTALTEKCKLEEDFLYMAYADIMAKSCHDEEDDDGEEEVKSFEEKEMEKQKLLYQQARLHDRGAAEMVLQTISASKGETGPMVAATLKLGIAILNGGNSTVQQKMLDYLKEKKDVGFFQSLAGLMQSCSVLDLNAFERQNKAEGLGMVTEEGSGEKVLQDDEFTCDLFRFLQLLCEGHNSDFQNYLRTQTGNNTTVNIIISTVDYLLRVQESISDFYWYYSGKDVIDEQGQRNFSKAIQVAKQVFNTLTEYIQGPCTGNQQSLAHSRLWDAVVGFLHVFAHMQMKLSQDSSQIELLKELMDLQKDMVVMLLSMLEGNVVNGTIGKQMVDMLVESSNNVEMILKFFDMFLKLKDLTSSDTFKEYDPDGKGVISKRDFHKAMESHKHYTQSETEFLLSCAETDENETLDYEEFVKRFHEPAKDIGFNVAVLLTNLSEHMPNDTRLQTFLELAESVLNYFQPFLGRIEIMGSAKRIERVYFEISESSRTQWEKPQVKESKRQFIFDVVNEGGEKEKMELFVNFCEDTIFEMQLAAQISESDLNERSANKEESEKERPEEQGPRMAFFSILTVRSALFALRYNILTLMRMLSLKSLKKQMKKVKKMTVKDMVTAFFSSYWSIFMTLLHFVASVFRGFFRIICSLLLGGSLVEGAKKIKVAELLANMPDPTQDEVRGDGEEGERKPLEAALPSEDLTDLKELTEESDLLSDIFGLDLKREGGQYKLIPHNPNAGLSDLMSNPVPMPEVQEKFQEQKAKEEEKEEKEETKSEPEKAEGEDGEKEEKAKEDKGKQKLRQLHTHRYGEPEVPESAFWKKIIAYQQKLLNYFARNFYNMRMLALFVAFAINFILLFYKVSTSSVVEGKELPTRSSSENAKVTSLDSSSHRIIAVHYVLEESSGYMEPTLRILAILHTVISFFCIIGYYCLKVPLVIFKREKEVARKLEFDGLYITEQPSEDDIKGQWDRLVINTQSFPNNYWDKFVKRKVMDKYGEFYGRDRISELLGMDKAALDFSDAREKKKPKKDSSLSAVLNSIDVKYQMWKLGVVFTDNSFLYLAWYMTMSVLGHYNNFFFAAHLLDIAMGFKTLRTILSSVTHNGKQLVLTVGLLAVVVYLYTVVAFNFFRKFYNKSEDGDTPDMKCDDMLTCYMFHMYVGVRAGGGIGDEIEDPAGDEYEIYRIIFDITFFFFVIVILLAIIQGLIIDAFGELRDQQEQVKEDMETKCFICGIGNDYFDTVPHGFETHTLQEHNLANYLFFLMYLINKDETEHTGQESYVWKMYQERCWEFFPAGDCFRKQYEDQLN
T1 sequence (P68106 whole entry partner): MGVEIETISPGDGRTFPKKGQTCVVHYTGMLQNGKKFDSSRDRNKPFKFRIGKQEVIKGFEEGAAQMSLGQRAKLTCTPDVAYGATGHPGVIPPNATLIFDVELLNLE

SMILES	EC50 [4] [nM]	inhibition at 5 min, 0.01 µM [5, 7] [%]	inhibition at 5 min, 0.1 µM [5, 7] [%]	inhibition at 5 min, 1 µM [5, 7] [%]	inhibition at 5 min, 10 µM [5, 8] [%]	inhibition at 5 min, 0.01 µM ([5]; Mean % hERG Inhibition) [%]	inhibition at 5 min, 0.1 µM ([5]; Mean % hERG Inhibition) [%]	inhibition at 5 min, 1 µM ([5]; Mean % hERG Inhibition) [%]	inhibition at 5 min, 10 µM ([5]; Mean % hERG Inhibition, 10 μM) [%]	inhibition at 5 min, 10 µM [5, 9] [%]	Mean % hERG Inhibition ([6]; 0.01 μM) [%]	Mean % hERG Inhibition ([6]; 0.1 μM) [%]	Mean % hERG Inhibition ([6]; 1 μM) [%]	Mean % hERG Inhibition ([6]; 10 μM) [%]	hERG current inhibition at the highest concentration tested [6]	other results
COc1ccc2c(c1)CN(C(=O)CCN1CCC(Cc3ccccc3)CC1)CCS2.Cl [JTV-519, 4-[3-(4-benzylpiperidin-1-yl)propionyl]-7-methoxy-2,3,4,5-tetrahydro-1,4-benzothiazepine monohydrochloride]	–	–	–	–	–	–	–	–	–	–	–	–	–	–	–	resting heart rate or other ECG parameters ([1]; 0.5 mg/kg/h for 7 days, osmotic mini-pump): no effect; cardiac arrhythmias and sudden cardiac death ([1]; plasma level 1 μM): prevent; skeletal muscle function [2]: able to improve skeletal muscle function; PKA phosphorylation of RyR2 at Ser-2808 [3]: reduces
COc1ccc2c(c1)CNCCS2 [S26]	40	9.1	12.3	11.3	56.4	8.9	10.5	12.3	58.3	–	–	–	–	–	–	IC50 [6]: 7030 nM; Individual Data (% Inhibition) ([6]; 0.01 μM): 8.7%; Individual Data (% Inhibition) ([6]; 0.1 μM): 8.6%; Individual Data (% Inhibition) ([6]; 1 μM): 13.2%; Individual Data (% Inhibition) ([6]; 10 μM): 60.1%
CCN(CC)C(=O)N1CCSc2ccc(OC)cc2C1 [S48]	100	–	4.2	4.7	15.2	1.3	3.6	4.1	14	< 50	–	–	–	–	–	Individual Data (% Inhibition) ([6]; 0.01 μM, listed as ARM048, 0.01 µM): 0.5% and 2.0%; Individual Data (% Inhibition) ([6]; 0.1 μM, listed as ARM048, 0.1 µM): 2.9%; Individual Data (% Inhibition) ([6]; 1 μM, listed as ARM048, 1 µM): 3.5%; Individual Data (% Inhibition) ([6]; 10 μM, listed as ARM048, 10 µM): 12.8%
COc1ccc2c(c1)CN(C(=O)N1CCNCC1)CCS2 [S64]	44	–	9.9	–	32	0.2	9	9.6	30.3	< 50	–	–	–	–	–	Individual Data (% Inhibition) ([6]; 0.01 μM, listed as ARM064, 0.01 µM): −0.6% and 1.0%; Individual Data (% Inhibition) ([6]; 0.1 μM, listed as ARM064, 0.1 µM): 8.1%; Individual Data (% Inhibition) ([6]; 1 μM, listed as ARM064, 1 µM): 13.2% and 6.0%; Individual Data (% Inhibition) ([6]; 10 μM, listed as ARM064, 10 µM): 28.5%
CCN(CC)C(=O)N1CCSc2ccccc2C1 [S75]	150	1.7	2.6	3.7	14.7	1.4	3.7	3.9	16	< 50	–	–	–	–	–	Individual Data (% Inhibition) ([6]; 0.01 μM, listed as ARM075, 0.01 µM): 1.1%; Individual Data (% Inhibition) ([6]; 0.1 μM, listed as ARM075, 0.1 µM): 4.8%; Individual Data (% Inhibition) ([6]; 1 μM, listed as ARM075, 1 µM): 4.1%; Individual Data (% Inhibition) ([6]; 10 μM, listed as ARM075, 10 µM): 17.2%
COC(=O)C(=O)N1CCSc2ccccc2C1 [S76]	25	–	–	–	10	0.4	2.5	3.1	11.2	< 50	–	–	–	–	–	Individual Data (% Inhibition) ([6]; 0.01 μM, listed as ARM076, 0.01 µM): 0.0% and 0.7%; Individual Data (% Inhibition) ([6]; 0.1 μM, listed as ARM076, 0.1 µM): 4.0% and 0.9%; Individual Data (% Inhibition) ([6]; 1 μM, listed as ARM076, 1 µM): 2.0% and 4.1%; Individual Data (% Inhibition) ([6]; 10 μM, listed as ARM076, 10 µM): 12.3%
O=C(O)C(=O)N1CCSc2ccccc2C1 [S77]	60	–	–	–	–	–	–	–	–	–	1.3	7.5	3.6	4.1	less than 50%	Individual Data (% Inhibition) ([6]; 0.01 μM, listed as ARM077, 0.01 µM): 1.4% and 1.1%; Individual Data (% Inhibition) ([6]; 0.1 μM, listed as ARM077, 0.1 µM): 11.4% and 3.6%; Individual Data (% Inhibition) ([6]; 1 μM, listed as ARM077, 1 µM): 3.1% and 4.0%; Individual Data (% Inhibition) ([6]; 10 μM, listed as ARM077, 10 µM): 0.9% and 7.2%
O=C(N1CCN(Cc2ccc3c(c2)OCO3)CC1)N1CCSc2ccccc2C1 [S101]	105	4.3	5.1	18.9	66.7	3.4	6.4	23	65.8	< 50	–	–	–	–	–	IC50 [6]: 4410 nM; Individual Data (% Inhibition) ([6]; 0.01 μM, listed as ARM101, 0.01 µM): 2.5%; Individual Data (% Inhibition) ([6]; 0.1 μM, listed as ARM101, 0.1 µM): 7.6%; Individual Data (% Inhibition) ([6]; 1 μM, listed as ARM101, 1 µM): 27.0%; Individual Data (% Inhibition) ([6]; 10 μM, listed as ARM101, 10 µM): 64.9%
O=C(N1CCCCC1)N1CCSc2ccccc2C1 [S102]	135	–	–	–	–	–	–	–	–	–	2.5	4.2	5.7	47.3	less than 50%	Individual Data (% Inhibition) ([6]; 0.01 μM, listed as ARM102, 0.01 µM): 0.5% and 4.4%; Individual Data (% Inhibition) ([6]; 0.1 μM, listed as ARM102, 0.1 µM): 1.8% and 6.5%; Individual Data (% Inhibition) ([6]; 1 μM, listed as ARM102, 1 µM): 0.8% and 10.5%; Individual Data (% Inhibition) ([6]; 10 μM, listed as ARM102, 10 µM): 46.2% and 48.3%
COc1ccc2c(c1)CN(C(=O)C(=O)O)CCS2(=O)=O [S104]	111	–	–	–	–	–	–	–	–	–	1.6	2.5	4.6	7.4	less than 50%	Individual Data (% Inhibition) ([6]; 0.01 μM, listed as ARM104, 0.01 µM): 1.2% and 1.9%; Individual Data (% Inhibition) ([6]; 0.1 μM, listed as ARM104, 0.1 µM): 1.1% and 3.9%; Individual Data (% Inhibition) ([6]; 1 μM, listed as ARM104, 1 µM): 3.1% and 6.0%; Individual Data (% Inhibition) ([6]; 10 μM, listed as ARM104, 10 µM): 8.3% and 6.5%
